Reference: ChEMBL document CHEMBL5705903, “A DNA Hypomethylation Signature Predicts Antitumor Activity of LSD1 Inhibitors in SCLC” (Cancer Cell, 2015)
Active and inactive are the calls of the source. The rule behind the calls is not given here.

Experiments:
[1] = Effect on cleaved PARP level in human NCI-H889 cells assessed as relative expression at 100 nM measured after 14 days by Western blot analysis (reference value: 0.94); format: functional; settings: time 14 day
[2] = Effect on cleaved PARP level in human NCI-H889 cells assessed as fold change at 10 nM measured after 7 days by Western blot analysis (reference value: 1.00); format: functional; settings: time 7 day
[3] = Effect on cleaved PARP level in human NCI-H1417 cells assessed as fold change at 10 nM measured after 10 days by Western blot analysis (reference value: 1.00); format: functional; settings: time 10 day
[4] = Effect on cleaved PARP level in human NCI-H1694 cells assessed as relative expression at 100 nM measured after 14 days by Western blot analysis (reference value: 0.25); format: functional; settings: time 14 day
[5] = Effect on cleaved PARP level in human NCI-H510 cells assessed as relative expression at 1000 nM measured after 7 days by Western blot analysis (reference value: 0.24); format: functional, NCI-H510A; settings: time 7 day
[6] = Toxicity in rat assessed as suppression of platelet in bone marrow measured for 28 days; format: cell-based; settings: 672 h, time 28 day
[7] = Effect on cleaved PARP level in human NCI-H524 cells assessed as relative expression at 1000 nM measured after 7 days by Western blot analysis (reference value: 0.63); format: functional; settings: time 7 day
[8] = Effect on cleaved PARP level in human NCI-H526 cells assessed as relative expression at 1000 nM measured after 10 days by Western blot analysis (reference value: 0.81); format: functional; settings: time 10 day
[9] = Effect on cleaved PARP level in human NCI-H526 cells assessed as fold change at 10 nM measured after 14 days by Western blot analysis (reference value: 1.00); format: functional; settings: time 14 day
[10] = AUC (0 to last) in mouse tumor at 5 mg/kg, po by HPLC/MS/MS analysis; format: ADME, organism-based, Neoplasm
[11] = Effect on cleaved PARP level in human NCI-H1694 cells assessed as fold change at 10 nM measured after 14 days by Western blot analysis (reference value: 1.00); format: functional; settings: time 14 day
[12] = Effect on cleaved PARP level in human NCI-H1417 cells assessed as relative expression at 10 nM measured after 7 days by Western blot analysis (reference value: 0.10); format: functional; settings: time 7 day
[13] = Effect on cleaved PARP level in human NCI-H510 cells assessed as relative expression at 10 nM measured after 14 days by Western blot analysis (reference value: 0.01); format: functional, NCI-H510A; settings: time 14 day
[14] = tested on: NCI-H146; assay: Effect on NCAM gene expression in human NCI-H146 cells at 1 uM measured after 4 days by qRT-PCR analysis; format: functional, cell-based; settings: time 4.0 day
[15] = tested on: NCI-H526; assay: Upregulation of LSD1 signal enrichment at typical enhancers in human NCI-H526 cells at 1 uM; format: functional, cell-based
[16] = Effect on cleaved PARP level in human NCI-H1417 cells assessed as fold change at 100 nM measured after 7 days by Western blot analysis (reference value: 1.00); format: functional; settings: time 7 day
[17] = tested on: NCI-H2171; assay: Antitumor activity against human NCI-H2171 cells xenografted in nude mouse assessed as tumor growth inhibition at […] mg/kg, po administered daily measured twice weekly relative to control; format: functional; settings: read-out: TGI
[18] = biological target: D-amino-acid oxidase (Homo sapiens, UniProt P14920)
Chain of D-amino-acid oxidase (P14920 whole entry, looked up): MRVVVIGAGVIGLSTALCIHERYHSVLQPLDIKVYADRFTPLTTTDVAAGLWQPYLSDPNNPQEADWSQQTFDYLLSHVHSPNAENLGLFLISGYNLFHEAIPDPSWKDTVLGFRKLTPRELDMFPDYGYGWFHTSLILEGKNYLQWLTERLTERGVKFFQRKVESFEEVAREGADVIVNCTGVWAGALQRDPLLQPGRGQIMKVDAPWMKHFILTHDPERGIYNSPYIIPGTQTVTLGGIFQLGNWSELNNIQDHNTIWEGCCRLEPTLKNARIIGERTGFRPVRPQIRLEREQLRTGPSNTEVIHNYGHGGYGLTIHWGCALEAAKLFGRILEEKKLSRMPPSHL
Description: Binding affinity to D-amino acid oxidase (unknown origin) assessed as inactivation constant

[19] = Effect on cleaved PARP level in human NCI-H889 cells assessed as relative expression at 1000 nM measured after 7 days by Western blot analysis (reference value: 0.34); format: functional; settings: time 7 day
[20] = Toxicity in rat assessed as declining clinical condition measured for 28 days; settings: in vivo, 672 h, time 28 day
[21] = tested on: NCI-H510A; assay: Effect on NSE gene expression in human NCI-H510A cells at 1 uM measured after 4 to 7 days by qRT-PCR analysis; format: functional, cell-based; settings: time 4-7 day
[22] = Effect on cleaved PARP level in human NCI-H889 cells assessed as fold change at 10 nM measured after 10 days by Western blot analysis (reference value: 1.00); format: functional; settings: time 10 day
[23] = Effect on cleaved PARP level in human NCI-H889 cells assessed as fold change at 1000 nM measured after 10 days by Western blot analysis (reference value: 1.00); format: functional; settings: time 10 day
[24] = tested on: NCI-H526; assay: Antitumor activity against human NCI-H526 cells xenografted in nude mouse assessed as mean tumor volume at 1.5 mg/kg, po administered daily measured twice weekly (reference value: 2359 +/- 247 mm3); format: functional
[25] = Toxicity in rat assessed as suppression of neutrophil in bone marrow measured for 28 days; format: cell-based; settings: 672 h, time 28 day
[26] = Toxicity in dog assessed as declining clinical condition measured for 28 days; set-up: species or system Canis lupus familiaris; settings: in vivo, 672 h, time 28 day
[27] = biological target: Lysine-specific histone demethylase 1A (Homo sapiens, UniProt O60341); settings: NCI-H526, dose 1-10000 nM, time 1-7 day
Description: Inhibition of LSD1 in human NCI-H526 cells assessed as change in IGFBP2 gene expression at 1 to 10000 nM by qRT-PCR analysis

[28] = Effect on cleaved PARP level in human NCI-H1694 cells assessed as fold change at 1000 nM measured after 10 days by Western blot analysis (reference value: 1.00); format: functional; settings: time 10 day
[29] = Effect on cleaved PARP level in human NCI-H146 cells assessed as fold change at 100 nM measured after 7 days by Western blot analysis (reference value: 1.00); format: functional; settings: time 7 day
[30] = Effect on cleaved PARP level in human NCI-H889 cells assessed as relative expression at 1000 nM measured after 10 days by Western blot analysis (reference value: 0.33); format: functional; settings: time 10 day
[31] = tested on: NCI-H146; assay: Effect on SYP gene expression in human NCI-H146 cells at 1 uM measured after 4 days by qRT-PCR analysis; format: functional, cell-based; settings: time 4.0 day
[32] = tested on: NCI-H526; assay: In vivo inhibition of LSD1 in human NCI-H526 cells xenografted in nude mouse assessed as change in IGFBP2 gene expression administrated daily for 5 days by qRT-PCR analysis; format: functional, organism-based; settings: dose 0.02-135 mg/kg, time 5.0 day
[33] = Effect on cleaved PARP level in human NCI-H510 cells assessed as fold change at 100 nM measured after 14 days by Western blot analysis (reference value: 1.00); format: functional, NCI-H510A; settings: time 14 day
[34] = Effect on cleaved PARP level in human NCI-H146 cells assessed as relative expression at 1000 nM measured after 10 days by Western blot analysis (reference value: 0.27); format: functional; settings: time 10 day
[35] = Effect on cleaved PARP level in human NCI-H889 cells assessed as fold change at 100 nM measured after 7 days by Western blot analysis (reference value: 1.00); format: functional; settings: time 7 day
[36] = Toxicity in mouse xenografted with human NCI-H1417 cells assessed as grooming behaviour at 1.5 mg/kg, po administered daily measured for 30 days; format: organism-based; settings: in vivo, 720 h, time 30 day
[37] = Effect on cleaved PARP level in human NCI-H510 cells assessed as relative expression at 10 nM measured after 7 days by Western blot analysis (reference value: 0.24); format: functional, NCI-H510A; settings: time 7 day
[38] = Half life in mouse at 5.5 mg/kg, ip by HPLC/MS/MS analysis; format: ADME, organism-based; settings: in vivo

With O=C(O)c1ccc(CN2CCC(CN[C@@H]3C[C@H]3c3ccccc3)CC2)cc1 [GSK2879552] the Activity [1] was 2.36, the “fold change (FC)” value [2] was 0.09 and the “fold change (FC)” value [3] was 1.44. For the same molecule, the Activity [4] was 0.23, the Activity [5] was 0.48 and the Activity [6] was “Toxic”. For the same molecule, the Activity [7] was 1.12, the Activity [8] was 1.15 and the “fold change (FC)” value [9] was 0.73. The AUC(0-t) [10] was 2320 ng·h/mL, the “fold change (FC)” value [11] was 0.85 and the Activity [12] was 0.16. The Activity [13] was 0.32, the Activity [14] was “inactive” and the Activity [15] was “Active”. For the same molecule, the “fold change (FC)” value [16] was 2.85, the inhibition in vivo at 1.25 mg/kg [17] was 37% and the Kinact [18] was 0.12 min⁻¹. For the same molecule, the Activity [19] was 0.66, the Activity [20] was “Toxic” and the Activity [21] was “inactive”. The “fold change (FC)” value [22] was 1.68, the “fold change (FC)” value [23] was 2.77 and the Activity [24] was 1113 mm3. For the same molecule, the Activity [25] was “Toxic”, the Activity [26] was “Toxic” and the inhibition [27] was “Tde”. The “fold change (FC)” value [28] was 0.71, the “fold change (FC)” value [29] was 1.02 and the Activity [30] was 0.91. For the same molecule, the Activity [31] was “inactive”, the inhibition [32] was “Dose-Dependent Effect” and the “fold change (FC)” value [33] was 2.92. The Activity [34] was 0.24, the “fold change (FC)” value [35] was 1.25 and the Activity [36] was “Non-Toxic”. For the same molecule, the Activity [37] was 0.3.
With c1ccc([C@@H]2C[C@H]2NC2CCNCC2)cc1 the half-life [38] was 3.6 h.
